Test results reported in ChEMBL document CHEMBL1133804, “Naphthalene derivatives: A new series of selective cyclooxygenase-2 inhibitors” (Bioorg Med Chem Lett, 2001).
pIC50: −log10 of the molar value. Activity calls are given as the source filed them. The rule behind the calls is not given here.

Legend:
Rattus norvegicus [1] = species: Rattus norvegicus; conditions: 30 mg/kg
Description: Antiinflammatory activity in vivo by carrageenan paw edema assay in rat at a dose of 30 mg/kg; NA is not active

[2] = target: T1, Prostaglandin G/H synthase 1 (Rattus norvegicus, UniProt Q63921)
T1 sequence (Q63921 whole entry): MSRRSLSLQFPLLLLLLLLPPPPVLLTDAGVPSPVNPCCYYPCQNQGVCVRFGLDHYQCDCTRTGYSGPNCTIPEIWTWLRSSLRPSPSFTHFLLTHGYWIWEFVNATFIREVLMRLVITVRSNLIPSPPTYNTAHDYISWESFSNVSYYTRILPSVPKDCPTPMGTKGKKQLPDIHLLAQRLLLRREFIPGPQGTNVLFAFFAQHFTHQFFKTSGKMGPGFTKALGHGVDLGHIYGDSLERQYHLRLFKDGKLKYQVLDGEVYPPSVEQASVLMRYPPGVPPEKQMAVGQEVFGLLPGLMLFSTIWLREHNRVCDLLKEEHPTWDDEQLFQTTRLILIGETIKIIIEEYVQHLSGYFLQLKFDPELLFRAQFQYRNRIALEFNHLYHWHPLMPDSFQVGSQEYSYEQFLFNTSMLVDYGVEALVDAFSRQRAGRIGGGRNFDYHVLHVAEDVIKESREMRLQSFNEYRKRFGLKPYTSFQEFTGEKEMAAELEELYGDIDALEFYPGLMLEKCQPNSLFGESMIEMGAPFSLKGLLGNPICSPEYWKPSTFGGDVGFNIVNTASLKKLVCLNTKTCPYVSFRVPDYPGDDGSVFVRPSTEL
Description: In vitro inhibitory concentration against rat prostaglandin G/H synthase 1

Rattus norvegicus [3] = assay: Antiinflammatory activity in vivo by carrageenan paw edema assay in rat at a dose of 10 mg/kg; conditions: read-out: Inhibition
Rattus norvegicus [4] = assay: Anti-inflammatory activity in vivo by carrageenan paw edema assay in rat at a dose of 30 mg/kg; format: functional
Rattus norvegicus [5] = assay: Antiinflammatory activity in vivo by carrageenan paw edema assay in rat at a dose of 3 mg/kg; format: functional
Rattus norvegicus [6] = assay: Antiinflammatory activity in vivo by carrageenan paw edema assay in rat at a dose of 30 mg/kg; NA is inactive; format: functional, organism-based; set-up: dose 30 mg/kg
Rattus norvegicus [7] = assay: Antiinflammatory activity in vivo by carrageenan paw edema assay in rat at a dose of 3 mg/kg; NA is inactive; format: functional, organism-based; set-up: dose 3 mg/kg
Rattus norvegicus [8] = assay: Antiinflammatory activity in vivo by carrageenan paw edema assay in rat at a dose of 30 mg/kg: NA is inactive; format: functional, organism-based; set-up: dose 30 mg/kg
Rattus norvegicus [9] = species: Rattus norvegicus; assay: Dose producing ulceration in rats; format: functional
Rattus norvegicus [10] = assay: Antiinflammatory activity in vivo by carrageenan paw edema assay in rat; NA is inactive; format: functional, organism-based

SMILES | pIC50 [2] | inhibition in vivo at 30 mg/kg (Rattus norvegicus [4]) | inhibition in vivo at 3 mg/kg (Rattus norvegicus [5]) | also measured
COc1ccc2c(Cc3ccc(Cl)cc3)c(CC(=O)O)ccc2c1 | < 4.00 | – | – | inhibition (Rattus norvegicus [1]): inactive
COc1ccc2c(c1)c(CC(=O)O)c(C)n2C(=O)c1ccc(Cl)cc1 [INDOMETHACIN] | – | – | – | inhibition in vivo at 10 mg/kg (Rattus norvegicus [3]): 100%
CCOc1ccc(Cc2ccc(C(C)C(=O)O)c3cc(OC)ccc23)cc1 (stereo unspecified) | < 4.00 | 52% | 27% | –
CS(=O)(=O)c1ccc(C2=C(c3ccccc3)C(=O)OC2)cc1 [ROFECOXIB] | – | – | 41% | –
COc1ccc2c(Cc3ccc(Cl)cc3)ccc(CC(=O)O)c2c1 | < 4.00 | 52% | – | –
CC(C(=O)O)c1ccc(Cc2ccc(F)cc2)c2ccccc12 (stereo unspecified) | 5.62 | 16% | – | –
COc1ccc2c(C(C)C(=O)O)ccc(Cc3ccc(F)cc3)c2c1 (stereo unspecified) | < 4.00 | – | – | inhibition (Rattus norvegicus [6]): inactive
COc1ccc2c(Cc3ccc(Cl)cc3)cccc2c1 | < 4.00 | – | – | inhibition (Rattus norvegicus [6]): inactive
CCc1ccc(Cc2ccc(C(C)C(=O)O)c3cc(OC)ccc23)cc1 (stereo unspecified) | < 4.00 | 32% | – | –
COc1ccc2c(Cc3ccc(C(C)(C)C)cc3)ccc(C(C)C(=O)O)c2c1 (stereo unspecified) | 4.39 | 32% | – | inhibition (Rattus norvegicus [7]): inactive
COc1ccc2c(Cc3ccccc3Cl)ccc(C(C)C(=O)O)c2c1 (stereo unspecified) | 5.64 | 13% | 5% | –
Cc1ccc(-c2cc(C(F)(F)F)nn2-c2ccc(S(N)(=O)=O)cc2)cc1 [CELECOXIB] | – | 40% | 41% | –
CC(C(=O)O)c1ccc(Cc2ccc(Cl)cc2)c2ccc(S(C)(=O)=O)cc12 (stereo unspecified) | < 4.00 | – | – | inhibition (Rattus norvegicus [4]): inactive
COc1ccc2c(Cc3ccc(C)cc3)ccc(C(C)C(=O)O)c2c1 (stereo unspecified) | 5.55 | 49% | 30% | –
CCC(C(=O)O)c1ccc(Cc2ccc(F)cc2)c2ccc(OC)cc12 (stereo unspecified) | 5.14 | – | – | inhibition (Rattus norvegicus [8]): inactive
COc1ccc2c(Cc3ccc(Cl)cc3)ccc(C(C)C(=O)O)c2c1 (stereo unspecified) | 5.39 | 50% | – | ED50 (Rattus norvegicus [9]): 40 mg/kg
COc1ccc2c(Cc3cccc(Cl)c3)ccc(C(C)C(=O)O)c2c1 (stereo unspecified) | – | 0% | 0% | –
CSc1ccc2c(Cc3ccc(Cl)cc3)ccc(C(C)C(=O)O)c2c1 (stereo unspecified) | 4.70 | 16% | – | –
COc1ccc2c(Cc3ccccc3)ccc(C(C)C(=O)O)c2c1 (stereo unspecified) | 5.82 | 58% | 30% | –
CCc1ccc2c(Cc3ccc(Cl)cc3)ccc(C(C)C(=O)O)c2c1 (stereo unspecified) | 4.21 | – | – | inhibition (Rattus norvegicus [10]): inactive
COc1ccc2c(Cc3ccc(F)cc3)ccc(C(C)C(=O)O)c2c1 (stereo unspecified) | 5.77 | 53% | – | –
COc1ccc(Cc2ccc(C(C)C(=O)O)c3cc(OC)ccc23)cc1 (stereo unspecified) | 5.06 | 45% | 22% | –
CC(C(=O)O)c1ccc(Cc2ccc(Cl)cc2)c2ccc(Cl)cc12 (stereo unspecified) | < 4.00 | – | – | inhibition (Rattus norvegicus [1]): inactive
COc1ccc2c(Cc3ccc(C(C)=O)cc3)ccc(C(C)C(=O)O)c2c1 (stereo unspecified) | 3.66 | – | – | inhibition (Rattus norvegicus [7]): inactive; inhibition (Rattus norvegicus [6]): inactive
COc1ccc2c(Cc3ccc(Cl)cc3)cc(CC(=O)O)cc2c1 | < 4.00 | – | – | inhibition (Rattus norvegicus [6]): inactive
